Measurements taken from the supplement of paper PMC11061612.

Experiments:
[1] = system: HSC-39 (Gastric Carcinoma); experiment: Bliss excess, mean over the matrix (fraction); higher = more synergy
Method in brief: (§1)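 Cell lines grown in DMEM/F12 or RPMI with 10% FBS were plated in 1536-well plates and held 24 hours at 37°C, 5% CO2 before 72 hours of exposure to two-drug dose matrices, with DMSO typically at 0.2%. CellTiter-Glo 2.0 luminescence gave viability, which was converted to inhibition. Vehicle wells were set to 0 and blank wells to 1. Combination Emax is the second-highest inhibition in the matrix, and Bliss excess is the observed combination effect minus the expected EA + EB − EA·EB, where EA and EB are the single-agent effects.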

[2] = system: MKN45 (Gastric Carcinoma); experiment: as above
Method in brief: as §1

[3] = system: NCI-H2342 (Lung Adenocarcinoma); experiment: as above
Method in brief: as §1

[4] = system: PANC-03-27 (Pancreatic Carcinoma); experiment: as above
Method in brief: as §1

[5] = system: CAL-62 (Thyroid Gland Carcinoma); experiment: combination Emax (second highest fraction inhibited in the dose matrix, 72 h); higher = more inhibition; extreme values may be limits of the assay
Method in brief: as §1

[6] = system: COLO-680N (Esophageal Squamous Cell Carcinoma); experiment: as above
Method in brief: as §1

[7] = system: HSC-39 (Gastric Carcinoma); experiment: as above
Method in brief: as §1

[8] = system: LK-2 (Squamous Cell Lung Carcinoma); experiment: as above
Method in brief: as §1

[9] = system: MFE-280 (Endometrial Carcinoma); experiment: as above
Method in brief: as §1

[10] = system: MKN45 (Gastric Carcinoma); experiment: as above
Method in brief: as §1

[11] = system: NCI-H2342 (Lung Adenocarcinoma); experiment: as above
Method in brief: as §1

[12] = system: PC-3_[JPC-3] (Lung Adenocarcinoma); experiment: as above
Method in brief: as §1

[13] = system: PSN1 (Pancreatic Carcinoma); experiment: as above
Method in brief: as §1

[14] = system: RCM-1 (Colorectal Carcinoma); experiment: as above
Method in brief: as §1

[15] = system: REH (B-Lymphoblastic Leukemia); experiment: as above
Method in brief: as §1

[16] = system: RKN (Other Solid Carcinomas); experiment: as above
Method in brief: as §1

[17] = system: SHP-77 (Small Cell Lung Carcinoma); experiment: as above
Method in brief: as §1

SK-MEL-2 (Melanoma) = experiment: as above
Method in brief: as §1

[18] = system: TE-8 (Esophageal Squamous Cell Carcinoma); experiment: as above
Method in brief: as §1

[19] = system: VAL (B-Cell Non-Hodgkin's Lymphoma); experiment: as above
Method in brief: as §1
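For Bliss excess, mean over the matrix in this document: after 72 h of two-drug dosing.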

Compound | Bliss excess [1] | Bliss excess [2] | Bliss excess [3] | Bliss excess [4] | combination Emax [5] | combination Emax [6] | combination Emax [7] | combination Emax [8] | combination Emax [9] | combination Emax [10] | combination Emax [11] | combination Emax [12] | combination Emax [13] | combination Emax [14] | combination Emax [15] | combination Emax [16] | combination Emax [17] | combination Emax (SK-MEL-2 (Melanoma)) | combination Emax [18] | combination Emax [19]
C=CCn1c(=O)c2cnc(Nc3ccc(N4CCN(C)CC4)cc3)nc2n1-c1cccc(C(C)(C)O)n1 [AZD1775] + CCc1c2c(nc3ccc(O)cc13)-c1cc3c(c(=O)n1C2)COC(=O)[C@]3(O)CC [SN-38] (first compound max 1 µM, partner max 0.3 µM) | -0.0065 | -0.0893 | 0.0025 | -0.0585 | 0.893 | 0.483 | 1 | 0.975 | 0.87 | 0.843 | 0.737 | 0.736 | 0.927 | 0.775 | 0.989 | 0.817 | 0.651 | 0.619 | 0.923 | 0.953
C=CCn1c(=O)c2cnc(Nc3ccc(N4CCN(C)CC4)cc3)nc2n1-c1cccc(C(C)(C)O)n1 [AZD1775] + Nc1ccn([C@@H]2O[C@H](CO)[C@@H](O)C2(F)F)c(=O)n1 [Gemcitabine] (first compound max 1 µM, partner max 0.3 µM) | 0.0379 | -0.116 | 0.0724 | -0.0383 | 0.826 | 0.419 | 1 | 0.982 | 0.655 | 0.753 | 0.784 | 0.574 | 0.832 | 0.593 | 0.999 | 0.633 | 0.676 | 0.507 | 0.806 | 0.794
CN(CCO)CC[C@H](CSc1ccccc1)Nc1ccc(S(=O)(=O)NC(=O)c2ccc(N3CCC([C@@H](O)c4ccccc4-c4ccc(Cl)cc4)CC3)cc2)cc1S(=O)(=O)C(F)(F)F [AZD4320] + CC(=O)O[C@H]1C(=O)[C@@]2(C)[C@H]([C@H](OC(=O)c3ccccc3)[C@]3(O)C[C@H](OC(=O)[C@H](O)[C@@H](NC(=O)c4ccccc4)c4ccccc4)C(C)=C1C3(C)C)[C@]1(OC(C)=O)CO[C@@H]1C[C@@H]2O [Paclitaxel] (first compound max 1 µM, 7x7, partner max 3 µM) | 0.0069 | -0.121 | 0.0455 | 0.0599 | 0.951 | 0.771 | 1 | 1 | 0.979 | 0.751 | 0.977 | 0.76 | 0.942 | 0.54 | 1 | 0.994 | 1 | 0.915 | 0.967 | 1
CN(CCO)CC[C@H](CSc1ccccc1)Nc1ccc(S(=O)(=O)NC(=O)c2ccc(N3CCC([C@@H](O)c4ccccc4-c4ccc(Cl)cc4)CC3)cc2)cc1S(=O)(=O)C(F)(F)F [AZD4320] + CS(=O)(=O)CCNCc1ccc(-c2ccc3ncnc(Nc4ccc(OCc5cccc(F)c5)c(Cl)c4)c3c2)o1 [Lapatinib] (first compound max 1 µM, 7x7, partner max 10 µM) | 0.0057 | -0.0888 | -0.0137 | 0.023 | 0.911 | 0.481 | 0.985 | 0.977 | 0.962 | 0.2 | 0.368 | 0.912 | 0.267 | 0.901 | 1 | 0.212 | 0.969 | 0.27 | 0.744 | 1
CN(CCO)CC[C@H](CSc1ccccc1)Nc1ccc(S(=O)(=O)NC(=O)c2ccc(N3CCC([C@@H](O)c4ccccc4-c4ccc(Cl)cc4)CC3)cc2)cc1S(=O)(=O)C(F)(F)F [AZD4320] + Nc1ccn([C@@H]2O[C@H](CO)[C@@H](O)C2(F)F)c(=O)n1 [Gemcitabine] (first compound max 1 µM, 7x7, partner max 0.3 µM) | -0.0867 | -0.0393 | 0.0364 | -0.0203 | 0.911 | 0.3 | 0.869 | 0.916 | 0.8 | 0.582 | 0.403 | 0.675 | 0.885 | 0.37 | 1 | 0.275 | 0.549 | 0.0969 | 0.57 | 1
Cc1c2c(nn1C)CSCc1cc(n(C)n1)CSc1cc(c3ccccc3c1)OCCCc1c(C(=O)O)n(C)c3c-2c(Cl)ccc13 [AZD5991] + CC(=O)O[C@H]1C(=O)[C@@]2(C)[C@H]([C@H](OC(=O)c3ccccc3)[C@]3(O)C[C@H](OC(=O)[C@H](O)[C@@H](NC(=O)c4ccccc4)c4ccccc4)C(C)=C1C3(C)C)[C@]1(OC(C)=O)CO[C@@H]1C[C@@H]2O [Paclitaxel] (first compound max 1 µM, 7x7, partner max 3 µM) | 0.0078 | -0.0238 | 0.082 | 0.0181 | 0.81 | 0.476 | 1 | 0.986 | 0.574 | 0.709 | 0.988 | 0.58 | 0.746 | 0.342 | 1 | 0.839 | 0.971 | 1 | 0.702 | 0.765
